Literature values in patent US20200080027A1, “ADVANCED NOVEL ECO-FRIENDLY COMPOSITIONS” (priority 2015, published 2020).

What was measured:
[1] = skin contact
human = human consumption
normal volunteers = conditions: 15 g/day for 10 days, 18 normal volunteers

For Span 80, the “water solubility” value is listed as “insoluble in water”.
For `[K+].[OH-]` [Potassium hydroxide], the “concentration of solution that is corrosive” value [1] is given as “higher than 2%”.
For `C/C=C/C=C/C(=O)[O-].[K+]` [Potassium sorbate], the “genotoxicity / mutagenicity in vitro” value (human blood cells) is listed as “both genotoxic and mutagenic”, the “maximum acceptable daily intake” value (human) is listed as 25 mg/kg and the carcinogenic effects (rats) is listed as “not been found to have any carcinogenic effects”. The solubility in water (at 20° C.) was 58.2%.
In the case of Xanthan gum, the laxative effect (normal volunteers) is given as “highly efficient laxative”.
For `O=C([O-])c1ccccc1.[Na+]` [Sodium benzoate], the “doses with no adverse effects in humans” value (humans) is listed as 647-825 mg/kg of body weight per day.
